These results are taken from PubChem BioAssay (NCI).

Experiment in all cases: inhibition of tumour cell growth, NCI panel, 48 h
Test [1] deals with BT-549 breast.
Test [2] relates to NCI/ADR-RES ovarian.
The test system of test [3] is SR leukemia.
Test [4] has as its system NCI-H23 lung.
Test [5] deals with IGROV1 ovarian.
The subject of test [6] is SK-MEL-2 melanoma.
The test system of test [7] is HL-60(TB) leukemia.
Test [8] deals with SN12C renal.
The test system of test [9] is ACHN renal.
Test [10] deals with HOP-62 NSCLC.
The test system of test [11] is U251 CNS.
The subject of test [12] is COLO 205 colon.
Test [13] deals with SK-MEL-5 melanoma.
Test [14] has as its system A549 NSCLC.
Test [15] relates to MCF7 breast.
The test system of test [16] is SNB-75 CNS.
The subject of test [17] is NCI-H226 lung.
The subject of test [18] is EKVX NSCLC.
The test system of test [19] is MDA-N.
In test [20] the test system is HS 578T breast.

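How tested: cells in 96-well plates exposed to compound for 48 hours at five concentrations. TGI: concentration producing complete growth inhibition.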

Consider `CCOC(=O)c1sc2nc(SC)nc3c2c1N=CN3c1ccccc1Cl`, for which the TGI in test [1] was over 100 µM; in test [2], over 100 µM; in test [3], 89.9 µM; in [4] it was over 100 µM; in [5] it was over 100 µM; in test [6], over 100 µM. The TGI in test [7] was over 100 µM; in test [8] it was over 100 µM; in [9], 55.3 µM; in test [10], 32.6 µM; in test [11], over 100 µM; in test [12], over 100 µM. The TGI in [13] was over 100 µM; in test [14] it was over 100 µM; in test [15], over 100 µM; in test [16] it was 36.3 µM; in test [17], over 100 µM; in test [18], over 100 µM. Besides, the TGI in test [19] is over 100 µM; in test [20], 52.3 µM.

With `CC(=O)Nc1ccc(C(=O)NN2C(=O)C(Cl)C2c2cc(Br)ccc2O)cc1` (stereo not given), the TGI in [1], in test [2], in test [3], in test [4], in test [5] and in [6] was over 100 µM in each case. The TGI in [7] was over 54.2 µM; in test [8], over 100 µM; in [9], over 100 µM; in test [10], over 100 µM; in [11] it was over 100 µM; in test [12] it was over 100 µM. Moreover, the TGI in test [13] is over 100 µM; in [14], over 100 µM; in [15], over 100 µM; in [16], over 100 µM; in test [17], 36.1 µM; in test [18] it was over 100 µM. Also, the TGI in [19] and in test [20] was over 100 µM each time.

For `Cc1cc2c(c(C=Nc3ccc([N+](=O)[O-])cc3)c1)OC1(C=C2)Oc2ccccc2C(=O)N1C` (stereo not given), the TGI in [1] amounted to 58.7 µM; in test [2] it was 49.1 µM; in test [3] it was 55.3 µM; in test [4], 35.7 µM; in [5], 56.6 µM; in [6], 57.9 µM. Besides, the TGI in test [7] is over 100 µM; in [8], 46.2 µM; in test [9], 50.5 µM; in [10], 82.9 µM; in test [11] it was 42.8 µM; in test [12] it was 54.3 µM. Also, the TGI in [13] is over 100 µM; in test [14], over 100 µM; in [15] it was 46 µM; in [16], 51.8 µM; in test [17], 46 µM; in [18] it was 43.6 µM. Further, the TGI in test [19] and in test [20] was over 100 µM each time.

With `CC(C)[Si](OC1=C(C(=O)Nc2ccccc2Cl)CCCCC1)(C(C)C)C(C)C`, the TGI in [1], in test [2], in test [3], in test [4], in [5] and in test [6] was over 100 µM each time. Also, the TGI in test [7] was 13.4 µM; in [8] it was over 100 µM; in [9], over 100 µM; in test [10], over 100 µM; in test [11], over 100 µM; in test [12], over 100 µM. Further, the TGI in test [13], in test [14], in test [15], in test [16], in test [17] and in test [18] was over 100 µM in each case. Further, the TGI in test [19] and in test [20] was over 100 µM each time.

Take `C=C1C[C@@H](O)[C@@H](Br)C(C)(C)[C@]12CCC(C)(Cl)C(Br)C2` (stereo not given in full): the TGI in test [1] is over 100 µM; in [2] it was 98 µM; in [3] it was over 100 µM; in test [4] it was over 74.9 µM; in test [5] it was 46.4 µM; in [6], 32.3 µM. Also, the TGI was 80.8 µM in [7]; 36 µM in test [8]; over 87.5 µM in [9]; over 65.2 µM in test [10]; over 55.9 µM in test [11]; over 33.7 µM in test [12]. Also, the TGI in test [13] was 23.4 µM; in test [14] it was over 86 µM; in [15], over 79.3 µM; in test [16] it was over 71.5 µM; in [17] it was over 84.8 µM; in [18], 33.4 µM. Besides, the figures for the TGI in test [19] and in [20] were over 59.8 µM and over 100 µM, respectively.

Regarding `NS(=O)(=O)c1ccc(NNc2c3ccccc3nc3ccccc23)cc1`, the TGI came out at 15.1 µM in test [1]; 24.5 µM in [2]; 21.4 µM in test [3]; 22.1 µM in [4]; 19.1 µM in [5]; 18.1 µM in test [6]. Further, the TGI was 19.9 µM in test [7]; 23.1 µM in [8]; 19.9 µM in test [9]; 22.4 µM in test [10]; 16.3 µM in test [11]; 13.9 µM in test [12]. The TGI was 17.2 µM in [13]; 25.6 µM in test [14]; 15.8 µM in test [15]; 21.9 µM in test [16]; 18.8 µM in [17]; 21.1 µM in test [18]. Further, the TGI turned out to be 17.5 µM in test [19] and 23.8 µM in test [20].

Regarding `CC1(C)C=C(/C=N/Nc2ccc([N+](=O)[O-])cc2)C(C#N)=C(O)C1(C#N)C#N`, the TGI in test [1], in [2], in [3], in [4], in test [5] and in test [6] was over 100 µM in each case. The TGI in test [7], in [8], in test [9], in [10], in [11] and in test [12] was over 100 µM in each case. For the same compound, the TGI in test [13], in [14], in test [15], in [16], in [17] and in [18] was over 100 µM in each case. Also, the TGI in test [19] and in test [20] was over 100 µM in each case.

Regarding `CCOC(=O)C(Cc1c2ccccc2cc2ccccc12)(NC(C)=O)C(=O)OCC`, the TGI in [1], in test [2], in [3], in test [4], in test [5] and in test [6] was over 100 µM each time. For the same compound, the TGI in [7], in test [8], in test [9], in test [10], in test [11] and in test [12] was over 100 µM throughout. Besides, the TGI in test [13] is over 100 µM; in test [14], over 100 µM; in test [15], over 100 µM; in [16], over 80.6 µM; in [17], over 100 µM; in test [18] it was over 100 µM. Further, the TGI in [19] and in test [20] was over 100 µM each time.

Regarding `COC(=O)C1=NN2c3ccccc3C(=O)OCCC2(C)C1` (stereo not given), the TGI in [1], in test [2], in [3], in [4], in test [5] and in [6] was over 100 µM throughout. In addition, the TGI in test [7], in test [8], in test [9], in [10], in test [11] and in test [12] was over 100 µM each time. Besides, the TGI in [13], in test [14], in test [15], in test [16], in test [17] and in test [18] was over 100 µM throughout. Moreover, the TGI in test [19] and in test [20] was over 100 µM throughout.

Consider `O=C1CCCC2=C(N1)C(=O)C=CC2=O`, for which the TGI in [1] is 31.1 µM; in test [2] it was over 70.5 µM; in [3], 57.8 µM; in test [4], 56.7 µM; in test [5], 57.2 µM; in [6], 60.4 µM. Besides, the TGI in test [7] is 73.5 µM; in [8] it was over 69.2 µM; in test [9], 55.1 µM; in [10], 61.9 µM; in test [11], 58.8 µM; in test [12], 33.3 µM. The TGI in test [13] was 57.1 µM; in test [14], over 78.5 µM; in test [15], 38.4 µM; in test [16], 60 µM; in test [17], over 68.5 µM; in [18] it was 53 µM. Also, the TGI in test [19] came to 30.9 µM; in [20], 79.4 µM.

Consider `COc1ccc(N=C2C(=O)C3=C(OC(C)(C)CC3)c3ccccc32)cc1`, for which the TGI was found to be 2.58 µM in [1]; 16.7 µM in [2]; 3.44 µM in test [3]; 13 µM in test [4]; 11.2 µM in test [5]; 2.46 µM in [6]. Also, the TGI in test [7] stood at 4.38 µM; in test [8], 1.63 µM; in [9] it was 1.57 µM; in test [10], 1.89 µM; in test [11] it was 1.65 µM; in [12], 5.8 µM. Further, the TGI in test [13] was found to be 1.53 µM; in test [14], 1.94 µM; in [15], 1.87 µM; in test [16], 1.96 µM; in test [17], 20.4 µM; in [18], 1.86 µM. The TGI was found to be 1.26 µM in [19] and 48.8 µM in [20].

As to `O=C(c1cccc(OCc2ccccc2)c1OCc1ccccc1)N1CCSC1=S`, the TGI is over 100 µM in test [1]; over 100 µM in test [2]; 45.2 µM in [3]; 74.9 µM in [4]; over 100 µM in test [5]; over 75.4 µM in test [6]. Also, the TGI is 33.1 µM in test [7]; over 100 µM in test [8]; over 100 µM in test [9]; over 100 µM in test [10]; over 100 µM in test [11]; 26.4 µM in test [12]. Further, the TGI is 31.7 µM in [13]; over 100 µM in [14]; over 100 µM in test [15]; 34.2 µM in test [16]; over 100 µM in [17]; over 100 µM in test [18]. Moreover, the TGI was over 100 µM in test [19] and over 45.8 µM in test [20].

Regarding `COC(=O)[C@@H]1C[C@H]([Se]c2ccccc2)CN1S(=O)(=O)c1ccc(C)cc1`, the TGI in test [1], in test [2], in [3], in test [4], in [5] and in test [6] was over 100 µM in each case. Further, the TGI in [7], in [8], in test [9], in test [10], in test [11] and in test [12] was over 100 µM each time. In addition, the TGI in test [13] is over 100 µM; in test [14] it was over 100 µM; in test [15], over 100 µM; in [16] it was 44.5 µM; in test [17], over 100 µM; in test [18], over 100 µM. In addition, the TGI in test [19] and in test [20] was over 100 µM throughout.

As for `CCOC(=O)C(NC(=O)c1ccccc1)(Nc1ccc(S(=O)(=O)Nc2nc(C)cc(C)n2)cc1)C(F)(F)F` (stereo not given), the TGI in [1], in test [2], in test [3], in test [4], in test [5] and in test [6] was over 100 µM throughout. Moreover, the TGI in test [7], in test [8], in test [9], in test [10], in test [11] and in [12] was over 100 µM in each case. Besides, the TGI in test [13], in test [14], in test [15], in [16], in test [17] and in [18] was over 100 µM each time. The TGI in test [19] and in test [20] was over 100 µM each time.
